The values that follow come from patent US11395847B2, “Acylated GLP-1/GLP-2 dual agonists” (Zealand Pharma A/S, priority 2016, dated 2022).

SMILES strings stand for the structures. *1 amine or outer side, *2 acyl side, *3 side chain or, on linkers, in order; H or OH if unused. Where a SMILES comes first, the peptide text is derived from it. Side-chain parts run from the residue outwards. [ ]: non-standard residue; d: D form. The star is where a group is joined. C20 diacid = O=C(O)CCCCCCCCCCCCCCCCCCC(=O)*; γGlu = O=C(O)[C@H](CCC(=O)[*:2])N[*:1]; AEEA = NCCOCCOCC(=O)O; Aib = CC(C)(N)C(=O)O

The test has as its target T1, human GLP-2 receptor (Homo sapiens, UniProt O95838, D470N).
T1 construct: expressed in transfected cells
T1 sequence (O95838 1-553 D470N): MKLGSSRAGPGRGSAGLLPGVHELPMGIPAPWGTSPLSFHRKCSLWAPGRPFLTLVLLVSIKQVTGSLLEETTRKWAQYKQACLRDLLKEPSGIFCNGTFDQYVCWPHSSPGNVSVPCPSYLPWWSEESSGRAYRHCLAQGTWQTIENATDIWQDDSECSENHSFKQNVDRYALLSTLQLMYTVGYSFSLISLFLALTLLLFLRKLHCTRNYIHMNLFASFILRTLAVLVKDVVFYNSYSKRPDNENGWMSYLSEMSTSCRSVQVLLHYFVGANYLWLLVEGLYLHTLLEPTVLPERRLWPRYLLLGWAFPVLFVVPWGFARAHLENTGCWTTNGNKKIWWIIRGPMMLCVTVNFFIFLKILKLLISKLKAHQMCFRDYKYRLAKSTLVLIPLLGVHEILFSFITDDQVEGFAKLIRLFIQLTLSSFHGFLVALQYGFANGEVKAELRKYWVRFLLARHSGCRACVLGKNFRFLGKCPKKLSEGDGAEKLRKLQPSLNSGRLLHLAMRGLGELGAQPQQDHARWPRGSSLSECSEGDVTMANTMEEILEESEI
Put plainly: GLP-2 receptor potency assay (cAMP ALPHASCREEN, HEK293 cells stably expressing GLP-2 R). Type of test: cell-based. The note with it: cAMP response, HEK293 cells expressing human GLP-2 R; read-out: EC50 GLP-2. From the text: One useful in vitro assay for measuring GLP-1 and GLP-2 receptor activity is quantitation of cAMP, i.e. 3′-5′-cyclic adenosine monophosphate, which is a second messenger essential in many biological processes, and one of the most ubiquitous mechanisms for regulating cellular functions.
For subcloning into a mammalian expression vector, primers for subcloning were obtained from DNA-Technology, Risskov, Denmark. The 5′ and 3′ primers used for the PCR reaction include terminal restriction sites for cloning and the context of the 5′ primer is modified to a Kozak consensus without changing the sequence of the product encoded by the ORF. […] The generated PCR product was purified using GFX PCR and Gel band purification kit, digested with restriction enzymes and cloned into the mammalian expression vector using Rapid DNA Ligation Kit. Ligation reaction was transformed to XL10 Gold Ultracompetent cells and colonies were picked for DNA production using ENDOFREE® Plasmid maxi kit. Subsequent sequence analysis was conducted by MWG Eurofins, Germany.
HEK293 cells were transfected using the LIPOFECTAMINE® PLUS transfection method. The day before transfection, HEK293 cells were seeded in two T75 flasks at a density of 2×10^6 cells/T75 flask in cell culturing medium without antibiotics. On the day of transfection, cells were washed with 1× DPBS and medium was replaced with OPTI-MEM© to a volume of 5 mL/T75 flask before addition of LIPOFECTAMINE®-plasmid complexes were added gently and drop wise to the cells in T75 flasks and replaced with growth medium after 3 hours and again to growth medium supplemented with 500 μg/mL G418 after 24 hours. Following 4 weeks in G418 selection, clones were picked and tested in a functional GLP-2 receptor potency assay as described below.
The cAMP ALPHASCREEN® assay from Perkin Elmer was used to quantitate the cAMP response to activation of the GLP1 and GLP2 receptor, respectively. […] Data from test compounds eliciting an increase in the intracellular level of cAMP were normalized relative to the positive and negative control (vehicle) to calculate the EC50 and maximal response from the concentration response curve.
Regarding `CC[C@H](C)[C@H](NC(=O)[C@H](Cc1ccccc1)NC(=O)[C@H](CC(=O)O)NC(=O)[C@H](CCCCNC(=O)COCCOCCNC(=O)COCCOCCNC(=O)CC[C@H](NC(=O)CCCCCCCCCCCCCCCCCCC(=O)O)C(=O)O)NC(=O)[C@H](C)NC(=O)[C@H](C)NC(=O)[C@H](CCC(N)=O)NC(=O)[C@H](CCC(=O)O)NC(=O)[C@H](CC(=O)O)NC(=O)[C@H](CC(C)C)NC(=O)[C@@H](NC(=O)[C@@H](NC(=O)[C@H](C)NC(=O)[C@H](CC(C)C)NC(=O)[C@H](CCC(=O)O)NC(=O)[C@H](CO)NC(=O)[C@@H](NC(=O)[C@H](Cc1ccccc1)NC(=O)[C@@H](NC(=O)CNC(=O)[C@H](CCC(=O)O)NC(=O)C(C)(C)NC(=O)[C@@H](N)Cc1c[nH]cn1)[C@@H](C)O)[C@@H](C)O)[C@@H](C)O)[C@@H](C)CC)C(=O)N[C@@H](C)C(=O)N[C@@H](Cc1c[nH]c2ccccc12)C(=O)N[C@@H](CC(C)C)C(=O)N[C@H](C(=O)N[C@@H](CCC(=O)O)C(=O)N[C@@H](Cc1c[nH]cn1)C(=O)N[C@@H](CCCCN)C(=O)N[C@H](C(=O)N[C@H](C(=O)N[C@@H](CC(=O)O)C(=O)O)[C@@H](C)O)[C@@H](C)CC)[C@@H](C)CC` [Compound 46] (H-H[Aib]EGTFTSELATILDEQAAK([AEEA-AEEA-γGlu-C20 diacid])DFIAWLIEHKITD-OH), the EC50 is 0.38 nM. As to `CC[C@H](C)[C@H](NC(=O)[C@H](Cc1ccccc1)NC(=O)[C@H](CC(=O)O)NC(=O)[C@H](CCCNC(=N)N)NC(=O)[C@H](C)NC(=O)[C@H](C)NC(=O)[C@H](CCC(N)=O)NC(=O)[C@H](CCCCNC(=O)COCCOCCNC(=O)[C@H](CCCCN)NC(=O)[C@H](CCC(=O)O)NC(=O)[C@H](CCCCN)NC(=O)CC[C@H](NC(=O)CCCCCCCCCCCCCCCCCCC(=O)O)C(=O)O)NC(=O)[C@H](CC(=O)O)NC(=O)[C@H](CC(C)C)NC(=O)[C@@H](NC(=O)[C@@H](NC(=O)[C@H](C)NC(=O)[C@H](CC(C)C)NC(=O)[C@H](CCC(=O)O)NC(=O)[C@H](CO)NC(=O)[C@@H](NC(=O)[C@H](Cc1ccccc1)NC(=O)[C@H](CO)NC(=O)CNC(=O)[C@H](CCC(=O)O)NC(=O)C(C)(C)NC(=O)[C@@H](N)Cc1c[nH]cn1)[C@@H](C)O)[C@@H](C)O)[C@@H](C)CC)C(=O)N[C@@H](C)C(=O)N[C@@H](Cc1c[nH]c2ccccc12)C(=O)N[C@@H](CC(C)C)C(=O)N[C@H](C(=O)N[C@@H](CCC(=O)O)C(=O)N[C@@H](Cc1c[nH]cn1)C(=O)N[C@@H](CCCCN)C(=O)N[C@H](C(=O)N[C@H](C(=O)N[C@@H](CC(=O)O)C(=O)O)[C@@H](C)O)[C@@H](C)CC)[C@@H](C)CC` [Compound 57] (HELM PEPTIDE1{H.[Aib].E.G.S.F.T.S.E.L.A.T.I.L.D.K.Q.A.A.R.D.F.I.A.W.L.I.E.H.K.I.T.D}|PEPTIDE2{[O=C(O)CCCCCCCCCCCCCCCCCCC(=O)[*:2]].[gGlu].K.E.K.[O=C(COCCOCCN[*:1])[*:2]]}$PEPTIDE1,PEPTIDE2,16:R3-6:R2$$$V2.0), the EC50 was 0.083 nM. Consider `CC[C@H](C)[C@H](NC(=O)[C@H](Cc1ccccc1)NC(=O)[C@H](CC(=O)O)NC(=O)[C@H](CCCNC(=N)N)NC(=O)[C@H](C)NC(=O)[C@H](C)NC(=O)[C@H](CCCCN)NC(=O)[C@H](CCCCNC(=O)COCCOCCNC(=O)[C@H](CCCCN)NC(=O)[C@H](CCC(=O)O)NC(=O)[C@H](CCCCN)NC(=O)CC[C@H](NC(=O)CCCCCCCCCCCCCCCCCCC(=O)O)C(=O)O)NC(=O)[C@H](CC(=O)O)NC(=O)[C@H](CC(C)C)NC(=O)[C@@H](NC(=O)[C@@H](NC(=O)[C@H](C)NC(=O)[C@H](CC(C)C)NC(=O)[C@H](CCC(=O)O)NC(=O)[C@H](CO)NC(=O)[C@@H](NC(=O)[C@H](Cc1ccccc1)NC(=O)[C@H](CO)NC(=O)CNC(=O)[C@H](CCC(=O)O)NC(=O)C(C)(C)NC(=O)[C@@H](N)Cc1c[nH]cn1)[C@@H](C)O)[C@@H](C)O)[C@@H](C)CC)C(=O)N[C@@H](C)C(=O)N[C@@H](Cc1c[nH]c2ccccc12)C(=O)N[C@@H](CC(C)C)C(=O)N[C@H](C(=O)N[C@@H](CCC(=O)O)C(=O)N[C@@H](Cc1c[nH]cn1)C(=O)N[C@@H](CCCCN)C(=O)N[C@H](C(=O)N[C@H](C(=O)N[C@@H](CC(=O)O)C(=O)O)[C@@H](C)O)[C@@H](C)CC)[C@@H](C)CC` [Compound 59] (HELM PEPTIDE1{H.[Aib].E.G.S.F.T.S.E.L.A.T.I.L.D.K.K.A.A.R.D.F.I.A.W.L.I.E.H.K.I.T.D}|PEPTIDE2{[O=C(O)CCCCCCCCCCCCCCCCCCC(=O)[*:2]].[gGlu].K.E.K.[O=C(COCCOCCN[*:1])[*:2]]}$PEPTIDE1,PEPTIDE2,16:R3-6:R2$$$V2.0), for which the EC50 is 0.11 nM.

`CC[C@H](C)[C@H](NC(=O)[C@H](Cc1ccccc1)NC(=O)[C@H](CC(=O)O)NC(=O)[C@H](CCCCNC(=O)COCCOCCNC(=O)COCCOCCNC(=O)[C@H](CCCCN)NC(=O)[C@H](CCC(=O)O)NC(=O)[C@H](CCCCN)NC(=O)CC[C@H](NC(=O)CCCCCCCCCCCCCCCCCCC(=O)O)C(=O)O)NC(=O)[C@H](C)NC(=O)[C@H](C)NC(=O)[C@H](CCC(N)=O)NC(=O)[C@H](CCC(=O)O)NC(=O)[C@H](CC(=O)O)NC(=O)[C@H](CC(C)C)NC(=O)[C@@H](NC(=O)[C@@H](NC(=O)[C@H](C)NC(=O)[C@H](CC(C)C)NC(=O)[C@H](CCC(=O)O)NC(=O)[C@H](CO)NC(=O)[C@@H](NC(=O)[C@H](Cc1ccccc1)NC(=O)[C@H](CO)NC(=O)CNC(=O)[C@H](CCC(=O)O)NC(=O)C(C)(C)NC(=O)[C@@H](N)Cc1c[nH]cn1)[C@@H](C)O)[C@@H](C)O)[C@@H](C)CC)C(=O)N[C@@H](C)C(=O)N[C@@H](Cc1c[nH]c2ccccc12)C(=O)N[C@@H](CC(C)C)C(=O)N[C@H](C(=O)N[C@@H](CCC(=O)O)C(=O)N[C@@H](Cc1c[nH]cn1)C(=O)N[C@@H](CCCCN)C(=O)N[C@H](C(=O)N[C@H](C(=O)N[C@@H](CC(=O)O)C(=O)O)[C@@H](C)O)[C@@H](C)CC)[C@@H](C)CC` [Compound 66] (H-H[Aib]EGSFTSELATILDEQAAK([AEEA-AEEA-Lys-Glu-Lys-γGlu-C20 diacid])DFIAWLIEHKITD-OH): the EC50 worked out at 0.18 nM.

As a reminder, the EC50 is the concentration at which the effect is half-maximal.
